Results published in ChEMBL document CHEMBL5137134, “Developing the Natural Prenylflavone Artocarpin from Artocarpus hirsutus as a Potential Lead Targeting Pathogenic, Multidrug-Resistant Staphylococcus aureus, Persisters and Biofilms with No Detectable Resistance” (J Nat Prod, 2022).
Converted amounts (≈) assume the structure as drawn. The source made the active and inactive calls. The rule behind the calls is not given here.

Legend:
Staphylococcus aureus [1] = experiment: Antibacterial activity against Staphylococcus aureus ATCC 29213 infected in mouse J774A.1 cells assessed as reduction in intracellular bacterial cells at 5 times MIC incubated for 24 hrs followed by re-plating on TSA plate and measured after 18 to 24 hrs; format: functional
Staphylococcus aureus [2] = experiment: Antibacterial activity against methicillin/levoflaxacin/vancomycin/meropenem/gentamycin/spectinomycin/teicoplanin resistant Staphylococcus aureus VRS 4 assessed as reduction in bacterial growth incubated for 16 to 18 hrs by broth microdilution method; format: functional; settings: time 16-18 hrs
Staphylococcus aureus [3] = experiment: Bactericidal activity against Staphylococcus aureus ATCC 29213 assessed as increase in extracellular ATP level after 1 hr by ATP bioluminescence assay; format: functional, organism-based; settings: DDE = dose-dependent effect
Staphylococcus aureus [4] = experiment: Synergistic antibacterial activity against Staphylococcus aureus ATCC 29213 assessed as reduction in bacterial growth incubated for 24 hrs in presence of linezolid by checkerboard method; format: functional
Staphylococcus aureus [5] = experiment: Post antibiotic effect against Staphylococcus aureus ATCC 29213 at 1 time MIC incubated for 1 hr followed by replacement with drug free medium and measured every 1 hr (reference value: 0 hr); format: functional
Staphylococcus aureus [6] = experiment: Post antibiotic effect against Staphylococcus aureus ATCC 29213 assessed as time required for 1 log10 increase in CFU at 1 time MIC incubated for 1 hr followed by replacement with drug free medium and measured every 1 hr (reference value: 2 hrs); format: functional
Acinetobacter baumannii = experiment: Antibacterial activity against Acinetobacter baumannii BAA 1605 assessed as reduction in bacterial growth incubated for 16 to 18 hrs by broth microdilution method; format: functional; settings: time 16-18 hrs
Staphylococcus aureus [7] = experiment: Synergistic antibacterial activity against Staphylococcus aureus ATCC 29213 at 1 time MIC after 24 hrs in presence of linezolid by time kill assay; format: functional
Staphylococcus aureus [8] = experiment: Synergistic antibacterial activity against Staphylococcus aureus ATCC 29213 assessed as fractional inhibitory concentration incubated for 24 hrs in presence of vancomycin by checkerboard method; format: functional
Staphylococcus aureus [9] = experiment: Post antibiotic effect against Staphylococcus aureus ATCC 29213 assessed as time required for 1 log10 increase in CFU at 10 times MIC incubated for 1 hr followed by replacement with drug free medium and measured every 1 hr (reference value: 2 hrs); format: functional
Staphylococcus aureus [10] = experiment: Synergistic antibacterial activity against Staphylococcus aureus ATCC 29213 assessed as reduction in bacterial growth incubated for 24 hrs in presence of ceftazidime by checkerboard method; format: functional
Staphylococcus aureus [11] = experiment: Bactericidal activity against Staphylococcus aureus ATCC 29213 assessed as increase in dead bacterial cells at 2.5 times MIC after 30 mins by confocal laser scanning microscopy analysis; format: functional, organism-based
Staphylococcus aureus [12] = experiment: Bactericidal activity against Staphylococcus aureus ATCC 29213 assessed as reduction in log10 CFU at 10 time MIC after 1 hr by time kill assay; format: functional
Staphylococcus aureus [13] = experiment: Antibacterial activity against chloramphenicol resistant Staphylococcus aureus NRS 129 assessed as reduction in bacterial growth incubated for 16 to 18 hrs by broth microdilution method; format: functional; settings: time 16-18 hrs
Staphylococcus aureus [14] = experiment: Bactericidal activity against Staphylococcus aureus ATCC 29213 assessed as visible cell destruction at 2.5 times MIC after 30 mins by scanning electron microscopy analysis; format: functional, organism-based
Staphylococcus aureus [15] = experiment: Synergistic antibacterial activity against Staphylococcus aureus ATCC 29213 assessed as reduction in bacterial growth incubated for 24 hrs in presence of daptomycin by checkerboard method; format: functional
Staphylococcus aureus [16] = experiment: Synergistic antibacterial activity against Staphylococcus aureus ATCC 29213 assessed as fractional inhibitory concentration incubated for 24 hrs in presence of levofloxacin by checkerboard method; format: functional
Staphylococcus aureus [17] = experiment: Antibacterial activity against methicillin/levoflaxacin/vancomycin/meropenem/gentamycin/spectinomycin/teicoplanin resistant Staphylococcus aureus VRS 1 assessed as reduction in bacterial growth incubated for 16 to 18 hrs by broth microdilution method; format: functional; settings: time 16-18 hrs
Enterococcus [18] = experiment: Antibacterial activity against vancomycin sensitive/methicillin resistant Enterococcus NR 31885 assessed as reduction in bacterial growth incubated for 16 to 18 hrs by broth microdilution method; format: functional; settings: time 16-18 hrs
Staphylococcus aureus [19] = experiment: Synergistic antibacterial activity against Staphylococcus aureus ATCC 29213 assessed as fractional inhibitory concentration incubated for 24 hrs in presence of minocycline by checkerboard method; format: functional
Klebsiella pneumoniae = experiment: Antibacterial activity against Klebsiella pneumoniae BAA 1705 assessed as reduction in bacterial growth incubated for 16 to 18 hrs by broth microdilution method; format: functional; settings: time 16-18 hrs
Staphylococcus aureus [20] = experiment: Antibiofilm activity against Staphylococcus aureus ATCC 29213 assessed as reduction in preformed bacterial biofilm mass at 1 time MIC incubated for 24 hrs by crystal violet staining based microtiter plate reader assay; format: functional; design: scale not given: the % may be the effect or the level left
Staphylococcus aureus [21] = experiment: Bactericidal activity against Staphylococcus aureus ATCC 29213 assessed as reduction in log10 CFU at 1 time MIC after 1 hr by time kill assay; format: functional
[22] = Selectivity index, ratio of CC50 for African green monkey Vero cells to MIC for Staphylococcus aureus ATCC 29213; format: toxicity; settings: read-out: Selectivity Index
Staphylococcus aureus [23] = experiment: Synergistic antibacterial activity against Staphylococcus aureus ATCC 29213 assessed as reduction in bacterial growth incubated for 24 hrs in presence of levofloxacin by checkerboard method; format: functional
Escherichia coli = experiment: Antibacterial activity against Escherichia coli ATCC 25922 assessed as reduction in bacterial growth incubated for 16 to 18 hrs in presence of PMBN by broth microdilution method; format: functional; settings: time 16-18 hrs
Enterococcus [24] = experiment: Antibacterial activity against vancomycin sensitive/methicillin resistant Enterococcus NR 31888 assessed as reduction in bacterial growth incubated for 16 to 18 hrs by broth microdilution method; format: functional; settings: time 16-18 hrs
Staphylococcus aureus [25] = experiment: Synergistic antibacterial activity against Staphylococcus aureus ATCC 29213 at 1 time MIC after 24 hrs in presence of gentamicin by time kill assay; format: functional
Staphylococcus aureus [26] = experiment: Synergistic antibacterial activity against Staphylococcus aureus ATCC 29213 assessed as fractional inhibitory concentration incubated for 24 hrs in presence of ceftazidime by checkerboard method; format: functional
Staphylococcus aureus [27] = experiment: Synergistic antibacterial activity against Staphylococcus aureus ATCC 29213 assessed as reduction in bacterial growth incubated for 24 hrs in presence of rifampicin by checkerboard method; format: functional
Staphylococcus aureus [28] = experiment: Antibacterial activity against methicillin/levoflaxacin/meropenem/erythromycin resistant Staphylococcus aureus NRS 192 assessed as reduction in bacterial growth incubated for 16 to 18 hrs by broth microdilution method; format: functional; settings: time 16-18 hrs
Staphylococcus aureus [29] = experiment: Antibacterial activity against methicillin/levoflaxacin/meropenem resistant Staphylococcus aureus NRS 191 assessed as reduction in bacterial growth incubated for 16 to 18 hrs by broth microdilution method; format: functional; settings: time 16-18 hrs
Staphylococcus aureus [30] = experiment: Synergistic antibacterial activity against Staphylococcus aureus ATCC 29213 assessed as reduction in bacterial growth incubated for 24 hrs in presence of gentamycin by checkerboard method; format: functional
Staphylococcus aureus [31] = experiment: Antibacterial activity against methicillin/meropenem resistant Staphylococcus aureus NRS 194 assessed as reduction in bacterial growth incubated for 16 to 18 hrs by broth microdilution method; format: functional; settings: time 16-18 hrs
Pseudomonas aeruginosa = experiment: Antibacterial activity against Pseudomonas aeruginosa ATCC 27853 assessed as reduction in bacterial growth incubated for 16 to 18 hrs by broth microdilution method; format: functional; settings: time 16-18 hrs
Enterococcus [32] = experiment: Antibacterial activity against vancomycin sensitive/methicillin resistant Enterococcus NR 31886 assessed as reduction in bacterial growth incubated for 16 to 18 hrs by broth microdilution method; format: functional; settings: time 16-18 hrs
Enterococcus [33] = experiment: Antibacterial activity against vancomycin/methicillin/levoflaxacin/minocycline resistant Enterococcus NR 31903 assessed as reduction in bacterial growth incubated for 16 to 18 hrs by broth microdilution method; format: functional; settings: time 16-18 hrs

**Q.** Which Activity (Staphylococcus aureus [1]) does the source give for `COc1cc2oc(-c3ccc(O)cc3O)c(CC=C(C)C)c(=O)c2c(O)c1/C=C/C(C)C` [ARTOCARPIN] here?
**A.** 3.25 log10CFU/ml

**Q.** And the MIC (Staphylococcus aureus [2])?
**A.** 4 µg/mL (≈ 9.16 µM)

**Q.** What about the Activity (Staphylococcus aureus [3]) of the same compound?
**A.** Dde

**Q.** And the MIC (Staphylococcus aureus [4])?
**A.** 1 µg/mL

**Q.** What about the PAE (Staphylococcus aureus [5]) of the same compound?
**A.** 3 h

**Q.** What about the Time (Staphylococcus aureus [6]) of the same compound?
**A.** 5 h

**Q.** What about the MIC (Acinetobacter baumannii) of the same compound?
**A.** > 128 µg/mL

**Q.** What about the Activity (Staphylococcus aureus [7]) of the same compound?
**A.** 4 log10CFU/ml

**Q.** And the FIC (Staphylococcus aureus [8])?
**A.** 0.5

**Q.** What about the Time (Staphylococcus aureus [9]) of the same compound?
**A.** 24 h

**Q.** And the MIC (Staphylococcus aureus [10])?
**A.** 2 µg/mL

**Q.** And the Activity (Staphylococcus aureus [11])?
**A.** Active

**Q.** What about the Activity (Staphylococcus aureus [12]) of the same compound?
**A.** 4.8 log10CFU/ml

**Q.** What about the MIC (Staphylococcus aureus [13]) of the same compound?
**A.** 4 µg/mL (≈ 9.16 µM)

**Q.** And the Activity (Staphylococcus aureus [14])?
**A.** Active

**Q.** And the MIC (Staphylococcus aureus [15])?
**A.** 1 µg/mL

**Q.** What about the FIC (Staphylococcus aureus [16]) of the same compound?
**A.** 0.5

**Q.** And the MIC (Staphylococcus aureus [17])?
**A.** 4 µg/mL (≈ 9.16 µM)

**Q.** And the MIC (Enterococcus [18])?
**A.** 2 µg/mL (≈ 4.58 µM)

**Q.** And the FIC (Staphylococcus aureus [19])?
**A.** 0.25

**Q.** What about the MIC (Klebsiella pneumoniae) of the same compound?
**A.** > 128 µg/mL

**Q.** What about the Activity (Staphylococcus aureus [20]) of the same compound?
**A.** 34%

**Q.** What about the Activity (Staphylococcus aureus [21]) of the same compound?
**A.** 3.6 log10CFU/ml

**Q.** And the selectivity ratio [22]?
**A.** 40

**Q.** What about the MIC (Staphylococcus aureus [23]) of the same compound?
**A.** 2 µg/mL

**Q.** What about the MIC (Escherichia coli) of the same compound?
**A.** 8 µg/mL

**Q.** What about the MIC (Enterococcus [24]) of the same compound?
**A.** 2 µg/mL (≈ 4.58 µM)

**Q.** What about the Activity (Staphylococcus aureus [25]) of the same compound?
**A.** 100%

**Q.** And the FIC (Staphylococcus aureus [26])?
**A.** 0.5

**Q.** And the MIC (Staphylococcus aureus [27])?
**A.** 2 µg/mL

**Q.** And the MIC (Staphylococcus aureus [28])?
**A.** 4 µg/mL (≈ 9.16 µM)

**Q.** And the MIC (Staphylococcus aureus [29])?
**A.** 4 µg/mL (≈ 9.16 µM)

**Q.** What about the MIC (Staphylococcus aureus [30]) of the same compound?
**A.** 0.06 µg/mL

**Q.** What about the MIC (Staphylococcus aureus [31]) of the same compound?
**A.** 4 µg/mL (≈ 9.16 µM)

**Q.** What about the MIC (Pseudomonas aeruginosa) of the same compound?
**A.** > 128 µg/mL

**Q.** What about the MIC (Enterococcus [32]) of the same compound?
**A.** 2 µg/mL (≈ 4.58 µM)

**Q.** What about the MIC (Enterococcus [33]) of the same compound?
**A.** 2 µg/mL (≈ 4.58 µM)
